Reference: patent US10251874B2, “Crystalline forms of a JAK inhibitor compound” (THERAVANCE BIOPHARMA R&D IP, LLC, priority 2017, dated 2019)
Where two headings read alike, the source gives them in different places.

Conditions: for sorption/desorption profile (hygroscopicity): DMS, two cycles of sorption and desorption, 25° C.
Experimental: Dynamic moisture sorption (DMS) measurement was performed using a VTI atmospheric microbalance, SGA-100 system (VTI Corp., Hialeah, FL 33016). A weighed sample was used and the humidity was lowest possible value (close to 0% RH) at the start of the analysis. The DMS analysis consisted of an initial drying step (˜0%RH) for 120 minutes, followed by two cycles of sorption and desorption with a scan rate of 5% RH/step over the humidity range of 5% RH to 90% RH. The DMS run was performed isothermally at 25° C.

With CCc1cc(O)c(F)cc1-c1ccc2c(-c3nc4c([nH]3)CCN(C3CCN(C)CC3)C4)n[nH]c2c1.O.O=C(O)C(=O)O [oxalate hydrate, Crystalline Oxalate Hydrate of 5-ethyl-2-fluoro-4-(3-(5-(1-methylpiperidin-4-yl)-4,5,6,7-tetrahydro-1H-imidazo[4,5-c]pyridin-2-yl)-1H-indazol-6-yl)phenol] the “sorption/desorption profile (hygroscopicity)” value was “slight propensity for hygroscopicity” and the total moisture uptake (relative humidity between about 30% and about 90% at room temperature) was “about 1%”.
With CCc1cc(O)c(F)cc1-c1ccc2c(-c3nc4c([nH]3)CCN(C3CCN(C)CC3)C4)n[nH]c2c1.O.O=C(O)CCC(=O)O [succinate hydrate, Crystalline Succinate Hydrate of 5-ethyl-2-fluoro-4-(3-(5-(1-methylpiperidin-4-yl)-4,5,6,7-tetrahydro-1H-imidazo[4,5-c]pyridin-2-yl)-1H-indazol-6-yl)phenol] the “sorption/desorption profile (hygroscopicity)” value was “slight propensity for hygroscopicity” and the total moisture uptake (relative humidity between about 5% and about 90% at room temperature) was “about 2%”.
